Test results from patent US8680052B1, “Methods of treating, reducing the incidence of, and/or preventing ischemic events” (The Medicines Company, priority 2013, dated 2014).
Where two headings read alike, the source gives them in different places.

Assays:
[1] = test system: vasodilator-stimulated phosphoprotein (VASP); experiment: Example 4: vasodilator-stimulated phosphoprotein (VASP) index; type: in vivo, human
Procedure: The study involved 12 patients who met the criteria of being 18-75 years of age, having coronary artery disease (CAD) documented by a previous MI or coronary revascularization, and taking 81 mg of aspirin daily. […] Prohibited concomitant medications included strong and potent CYP3A inhibitors, simvastatin and lovastatin at doses more than 40 mg/day, omeprazole or esomeprazole, and digoxin. Use of non-steroidal anti-inflammatory agents was discouraged during study participation but not prohibited.
Each patient was administered a 30 μg/kg bolus of cangrelor followed immediately by a 2 hr infusion at a rate of 4.0 μg/kg/min. A loading dose of ticagrelor (180 mg) was given after 0.5 hr or 1.25 hr (n=6 for each). Blood for pharmacodynamic platelet function studies was taken after 0.5 or 1.25 hr (corresponding to the time of ticagrelor load, n=6 for each), and then at 1.75, 2, 2.25, 2.5, 2.75, 3, 4, and 5.25 hr. Patients were assigned randomly to receive either 6 (n=6) or 7 (n=6) doses of ticagrelor to be taken every 12 hours following the discontinuation of the infusion of cangrelor. On study day 5, each patient was administered a 30 μg/kg bolus of cangrelor followed immediately by a 2 hr infusion at a rate of 4.0 μg/kg/min. Blood for pharmacodynamic assessment was taken after 1 and 2 hr. Adverse events were queried throughout study participation that ended with a telephone interview performed on study day 10-12.
Pharmacodynamic assessment included light transmission aggregometry (LTA), VerifyNow® P2Y12 assay, vasodilator-stimulated phosphoprotein (VASP) index, and platelet activation measured with the use of flow cytometry. Assessment of LTA, VerifyNow®, and platelet activation with the use of flow cytometry was performed within 30 min of blood being taken. In the case of flow cytometry, samples were processed to fixation and then batched for analysis. For VASP, index samples were batched and processed as recommended by the vendor within 2 h of blood being taken. This approach limited the time from fixation of VASP index to flow analysis to less than 1 h.
LTA induced by 5 μM and 20 μM adenosine diphosphate (ADP) was quantified ex vivo (i.e. in non-adjusted platelet rich plasma). Platelet-poor plasma was set as 100% aggregation, and both maximal (peak) and terminal (at 300 s) aggregation were measured with a PAP4 aggregometer (BioData, Horsham, Pa.). VerifyNow® P2Y12 assay (Accumetrics Inc, San Diego, Calif.) that measures the effects of drugs on the P2Y12 receptor by activating platelets with prostaglandin El in addition to ADP was used in accordance with the instructions provided by the manufacturer. Platelet reactivity was expressed in P2Y12 reaction units (PRU). Activation of platelets was identified with the use of flow cytometry as previously described.^17. And to determine the VASP index, a commercially available kit (Diagnostica Stago, Inc, Parsippany NJ) was used. ^17 Schneider D J, Sobel B E. Streamlining the design of promising clinical trials: in-vitro testing of antithrombotic regimens and multiple agonists of platelet activation. Coron Artery Dis. 2009; 20:175-8.

[2] = test system: patients with atherosclerosis undergoing PCI; type: in vivo
Procedure: The primary safety end point was severe bleeding not related to coronary-artery bypass grafting, according to the Global Use of Strategies to Open Occluded Coronary Arteries (GUSTO) criteria, at 48 hours. Several other bleeding definitions were also applied.

[3] = 48 hours, Non-CABG Related Bleeding, Safety, Cangrelor vs Clopidogrel
[4] = 48 hours, Non-CABG Related Bleeding, Safety, n/N
[5] = 48 hours, Non-CABG Related Bleeding, Safety, rate in parentheses
[6] = 48 hours, Non-CABG Related, Safety, Cangrelor vs Clopidogrel
[7] = 48 hours, Non-CABG Related, Safety, n/N
[8] = 48 hours, Non-CABG Related, Safety, rate in parentheses
[9] = 48 hours, non-CABG-related, safety population, Cangrelor vs Clopidogrel
[10] = treatment emergent adverse event, 48 hours, safety population

CSCCNc1nc(SCCC(F)(F)F)nc2c1ncn2[C@@H]1O[C@H](COP(=O)(O)OP(=O)(O)C(Cl)(Cl)P(=O)(O)O)[C@@H](O)[C@H]1O [Cangrelor, cangrelor]
VASP Index VI ([1]; Study Day 1, 1.75 h, All): 13 ± 9 | VASP Index VI ([1]; Study Day 1, 1.75 h, Ticagrelor at 0.5 hr): 13 ± 9 | VASP Index VI ([1]; Study Day 1, 1.75 h, Ticagrelor at 1.25 hr): 13 ± 4 | VASP Index VI ([1]; Study Day 1, 2.0 h, All): 15 ± 9 | VASP Index VI ([1]; Study Day 1, 2.0 h, Ticagrelor at 0.5 hr): 11 ± 7 | VASP Index VI ([1]; Study Day 1, 2.0 h, Ticagrelor at 1.25 hr): 19 ± 7 | VASP Index VI ([1]; Study Day 1, reference 0.5/1.25 h, All): 18 ± 10 | VASP Index VI ([1]; Study Day 1, reference 0.5/1.25 h, Ticagrelor at 0.5 hr): 18 ± 13 | VASP Index VI ([1]; Study Day 1, reference 0.5/1.25 h, Ticagrelor at 1.25 hr): 19 ± 8 | VASP Index VI ([1]; Study Day 5, 1.0 h, All): 16 ± 11 | VASP Index VI ([1]; Study Day 5, 1.0 h, Ticagrelor 6 doses): 19 ± 14 | VASP Index VI ([1]; Study Day 5, 1.0 h, Ticagrelor 7 doses): 12 ± 7 | VASP Index VI ([1]; Study Day 5, 2.0 h, All): 17 ± 5 | VASP Index VI ([1]; Study Day 5, 2.0 h, Ticagrelor 6 doses): 20 ± 3 | VASP Index VI ([1]; Study Day 5, 2.0 h, Ticagrelor 7 doses): 14 ± 6 | rate of GUSTO-defined severe bleeding (primary safety end point) ([2]; 48 hours): 0.16% | BARC criteria Type 3 OR [2, 3]: 1.69 | BARC criteria Type 3a OR [2, 3]: 2.75 | BARC criteria Type 3b OR [2, 3]: 1.12 | BARC criteria Type 3c OR [2, 3]: 2.00 | BARC criteria Type 3 [2, 4]: 22/5529 | BARC criteria Type 3a [2, 4]: 11/5529 | BARC criteria Type 3b [2, 4]: 9/5529 | BARC criteria Type 3c [2, 4]: 2/5529 | BARC criteria Type 3 [2, 5]: (0.4) | BARC criteria Type 3a [2, 5]: (0.2) | BARC criteria Type 3b [2, 5]: (0.2) | BARC criteria Type 3c [2, 5]: (0.0) | ACUITY criteria Major bleeding OR [2, 6]: 1.72 | ACUITY criteria Major without ≧ 5 cm hematoma OR [2, 6]: 1.62 | ACUITY criteria Minor bleeding OR [2, 6]: 1.42 | ACUITY criteria Major bleeding [2, 7]: 235/5529 | ACUITY criteria Major without ≧ 5 cm hematoma [2, 7]: 42/5529 | ACUITY criteria Minor bleeding [2, 7]: 653/5529 | ACUITY criteria Major bleeding [2, 8]: (4.3) | ACUITY criteria Major without ≧ 5 cm hematoma [2, 8]: (0.8) | ACUITY criteria Minor bleeding [2, 8]: (11.8) | odds ratio, GUSTO-defined severe bleeding ([2]; 48 hours, cangrelor vs clopidogrel): 1.50 | GUSTO-defined moderate bleeding, Odds Ratio (95% CI) [2, 9]: 1.69 (0.85-3.37) | GUSTO-defined severe or life-threatening bleeding, Odds Ratio (95% CI) [2, 9]: 1.50 (0.53-4.22) | GUSTO-defined severe or moderate bleeding, Odds Ratio (95% CI) [2, 9]: 1.63 (0.92-2.90) | TIMI-defined major bleeding, Odds Ratio (95% CI) [2, 9]: 1.00 (0.29)-3.45) | TIMI-defined major or minor bleeding, Odds Ratio (95% CI) [2, 9]: 1.75 (0.73-4.18) | TIMI-defined minor bleeding, Odds Ratio (95% CI) [2, 9]: 3.00 (0.81-11.10) | Any blood transfusion, Odds Ratio (95% CI) ([2]; 48 hours, safety population, Cangrelor vs Clopidogrel): 1.56 (0.83-2.93) | adverse events that led to discontinuation of the study drug ([2]; in vivo): 0.5% | rate of adverse events related to treatment ([2]; in vivo): 20.2% | transient dyspnea ([2]; in vivo): 1.2% | Agitation (Psychiatric disorders) [2, 10]: (0.2) % | Chest Pain (General disorders and administration site conditions) [2, 10]: (1.0) % | Diarrhea (Gastrointestinal disorders) [2, 10]: (0.3) % | Dyspnea (Respiratory, thoracic, and mediastinal disorders) [2, 10]: (1.2) %
